These are literature values, as cited in US6653298B2, “Composition” (Sterix Limited, priority 2000, dated 2003).

For series [1], the target named is T1, E1-STS (Homo sapiens, UniProt P08842).
T1 sequence (P08842 22-583): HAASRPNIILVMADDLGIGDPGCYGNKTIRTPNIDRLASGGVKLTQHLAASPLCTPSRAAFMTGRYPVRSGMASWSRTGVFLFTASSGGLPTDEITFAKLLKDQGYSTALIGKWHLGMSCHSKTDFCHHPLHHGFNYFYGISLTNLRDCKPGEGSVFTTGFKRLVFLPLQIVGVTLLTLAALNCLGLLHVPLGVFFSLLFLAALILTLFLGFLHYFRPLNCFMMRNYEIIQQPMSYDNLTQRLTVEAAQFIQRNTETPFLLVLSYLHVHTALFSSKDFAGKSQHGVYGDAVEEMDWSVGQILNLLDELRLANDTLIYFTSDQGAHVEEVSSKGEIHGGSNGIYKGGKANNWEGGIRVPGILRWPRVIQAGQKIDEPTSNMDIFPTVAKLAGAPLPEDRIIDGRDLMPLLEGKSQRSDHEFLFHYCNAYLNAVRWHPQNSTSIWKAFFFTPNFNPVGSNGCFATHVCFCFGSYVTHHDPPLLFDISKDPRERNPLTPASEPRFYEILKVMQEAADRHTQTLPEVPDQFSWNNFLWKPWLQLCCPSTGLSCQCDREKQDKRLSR
The conditions noted are these: cited from earlier work.

For series [2] the following is noted: rats; cited from earlier work.
The subject of series [3] is uterine growth. The conditions noted are these: cited from earlier work.
Series [4] has as its target T2, dehydroepiandrosterone sulphatase (DHA-STS) (Homo sapiens, UniProt P08842).
T2 sequence (P08842 22-583): T1 sequence (P08842 22-583)
As to conditions: cited from earlier work.

Series [5] deals with T1, E1-STS. Set-up: endogenous in cells; host or cells: MCF-7; dose or concentration left out as unconfirmed. The conditions noted are these: intact MCF-7 cells; cited from earlier work.
For series [6], the target named is T3, rat liver DHA-STS (Rattus norvegicus, UniProt P15589).
T3 construct: samples of liver tissue were obtained and oestrone sulphatase activity assayed; from tissue; host or cells: rat liver (after in vivo dosing)
T3 sequence (P15589 20-577): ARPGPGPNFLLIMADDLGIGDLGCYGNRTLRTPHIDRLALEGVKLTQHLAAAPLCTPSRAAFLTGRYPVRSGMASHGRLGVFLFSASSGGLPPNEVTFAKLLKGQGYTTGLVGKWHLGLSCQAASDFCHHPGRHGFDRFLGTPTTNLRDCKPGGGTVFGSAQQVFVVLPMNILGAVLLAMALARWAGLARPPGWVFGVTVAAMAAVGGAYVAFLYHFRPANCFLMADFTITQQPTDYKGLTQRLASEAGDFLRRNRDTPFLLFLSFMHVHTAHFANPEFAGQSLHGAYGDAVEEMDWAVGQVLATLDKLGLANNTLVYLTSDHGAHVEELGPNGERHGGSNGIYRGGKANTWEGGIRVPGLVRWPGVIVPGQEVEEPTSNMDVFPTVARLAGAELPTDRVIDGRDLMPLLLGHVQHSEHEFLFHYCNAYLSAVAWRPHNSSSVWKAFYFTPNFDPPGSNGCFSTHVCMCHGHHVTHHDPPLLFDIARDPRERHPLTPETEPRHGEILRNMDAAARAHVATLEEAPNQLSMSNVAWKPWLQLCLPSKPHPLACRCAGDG
The conditions noted are these: in vivo, administered either orally or subcutaneously; cited from earlier work.

In series [7] the test system is tubulin. The conditions noted are these: at high concentrations; cited from earlier work.
Series [8] has as its system angiogenesis. As to conditions: cited from earlier work.
In series [9] the test system is endothelial cell. As to conditions: cited from earlier work.
Series [10] relates to Meth A sarcoma, B16 melanoma or MDA-MB-435 estrogen receptor negative (ER−) breast cancer cells. As to conditions: subcutaneous injection of Meth A sarcoma, B16 melanoma or MDA-MB-435 cells; cited from earlier work.
Series [11] has as its system microtubule. The conditions noted are these: at high concentrations; cited from earlier work.

With oestrone-3-S-sulphamate, the “manner of inhibition of the E1-STS enzyme” value in series [1] is “weaker non-time-dependent inactivators”.
Take `CC12CCC3c4ccc(OS(N)(=O)=O)cc4CCC3C1CCC2=O` (stereo not drawn) [EMATE, oestrone-3-O-sulphamate]: in [2], the effect on memory result is recorded as “memory enhancing effect”. In addition, the “manner of inhibition of the E1-STS enzyme” value in [1] was “time- and concentration-dependent manner”. Also, the “oral uterotrophic activity relative to estradiol” value in series [3] (rats, oral) was 100 times. Also, the “inhibition of DHA-STS” value in series [4] is recorded as “inhibits dehydroepiandrosterone sulphatase”. Besides, the “inhibition of E1-STS activity” value in series [5] is on record as “more than 99%”. In series [6], the “inhibition of rat liver DHA-STS activity” value is 99%.
As to oestrone-3-N-sulphamate, the “manner of inhibition of the E1-STS enzyme” value in series [1] is reported as “weaker non-time-dependent inactivators”.
As to `COc1cc2c(cc1OS(N)(=O)=O)CC[C@@H]1[C@@H]2CC[C@]2(C)C(=O)CC[C@@H]12` [2-methoxyoestrone-3-O-sulphamate, reference compound], the “potency as steroid sulphatase inhibitor relative to EMATE” value in [1] was “equipotent with EMATE”. For the same compound, in series [3] (rat, in vivo), the oestrogenicity result is “devoid of oestrogenicity”.
With `COc1cc2c(cc1O)CC[C@@H]1[C@@H]2CC[C@]2(C)[C@@H](O)CC[C@@H]12` [2-MeOE2, 2-methoxyoestradiol], the “inhibition of colchicine binding to tubulin” value in series [7] is recorded as “weak inhibitor of colchicine binding to tubulin”. In series [8], the in vitro angiogenesis entry is listed as “inhibits”. Further, the “endothelial cell proliferation and migration” value in [9] is “inhibits endothelial cell proliferation and migration”. For the same compound, the “growth of tumours in vivo” value in series [10] is “inhibits the growth of tumours”. In addition, in series [11], the microtubule polymerisation result is “can inhibit microtubule polymerisation”.
